The viability is a per cent measure of how many cells are alive, often set against a control. The IC50 is the concentration that inhibits the measured activity by half.

A short description of series [1]: mitochondrial viability assay with resazurin. Conditions: human, 0.01–10 μM; for viability at 3 days: marked reduction in at least one cell line; for viability at 3 days, 10 μM: four cell lines, even at the highest concentration tested (10 μM). The series is classed as cell-based, human. As for the experimental part:
The human cell lines SH-SY5Y (SY5Y, ATCC CRL-2266), SK-MEL-5 (SKMEL-5, ATCC HTB-70), and NCI-H187 (H187, ATCC CRL-5804) were cultured in RPMI medium supplemented with 10% FBS and no antibiotics. These three cell lines were generously provided by the laboratory of Susan Lindquist via Luke Whitesell (currently at the University of Toronto, Toronto, ON, Canada). BJ-hTERT (described in [27], generously provided by Robert Weinberg, Whitehead Institute, Cambridge MA, USA) was cultured in 4:1 DMEM:M199 medium supplemented with 15% FBS and no antibiotics. All cell lines were grown and assayed at 37 °C, 5% CO2. All cell lines were screened for mycoplasma contamination by PCR (Mycoscope Detection Kit, Fisher Scientific) before use in assays.
For viability assays, cells were plated in black, clear bottom 384-well tissue culture-treated plates (Corning) and incubated overnight in the media described above but supplemented with 50 U/mL penicillin-streptomycin antibiotic (Life Technologies). Then, DMSO (no drug controls) and PDE5 inhibitors (0.01–10 μM; synthesized as described above or purchased from Selleck Chemicals) were added using a Hewlett-Packard D300 Digital Dispenser (Tecan) and incubated for 3 days. Maximum DMSO concentration was normalized to 0.1% of the total well volume for all wells. Resazurin (R & D Systems) was diluted 1:20 into each well and incubated for up to 4 hours. Fluorescence was read in a Tecan plate reader (excitation = 570 nm, emission = 585 nm). Wells treated with PDE5 inhibitors were normalized against control wells treated with DMSO to measure percent mitochondrial viability (100 = no effect on mitochondrial viability).
A general note: Alamar Blue is a resazurin reagent that responds to reducing activity.

Series [2] addresses purified recombinant human PDE5 (Homo sapiens, UniProt O76074). The experiment in a line: in vitro PDE5 inhibition assay measuring GMP production from cGMP (HPLC-UV-MS). The conditions noted are these: for Fold improved potency (fold change in IC50 compared to icariin): relative to icariin; for fold increase in potency compared to the corresponding unglycosylated analog: 3 vs 6, 5 vs 8. Type of series: biochemical. As for the experimental part:
STRENDA guidelines were considered in the description of the following enzyme activity assays. PDE5 inhibition and kinetics assays were carried out according to the method of Kincaid and Manganiello [31] and Dell’Agli et al. 1 nM recombinant human PDE5 (catalytic domain consisting of amino acids 537–875, Abcam, ab125581) was pre-incubated with PDE5 inhibitors (synthesized in-house as described above or purchased from Selleck Chemicals) in 40 mM tris-hydrochloric acid, pH 7.8, containing 10 mM MgCl2. […]. PDE5 inhibitors were added to each reaction using a Hewlett-Packard D300 Digital Dispenser (Tecan). Maximum DMSO concentration was 0.1% of the final reaction volume for all samples. After incubation at 25 °C for 5 minutes to allow interaction between PDE5 and drugs, the reaction was started with the addition of 0.3 μM cGMP (Enzo Life Sciences, Inc.) and incubated at 25 °C for 15 minutes. The final reaction volume was 100 μL. Reactions were stopped with the addition of 100 μL of 0.1 M HCl and neutralized by adding 0.1 M NaOH until the pH was 7. […] The amount of GMP produced was measured by HPLC-UV-MS as described in the general procedures. Reaction mixture components were separated with a ramp gradient of solvent A and B run at a flow rate of 0.5 mL/min as follows: 0–4 minutes 0% B, 4–7 minutes 0–95% B, 7–8 minutes 95% B, 8–11.1 minutes 0% B. GMP was measured using selected reaction monitoring in positive mode for a centroid center mass of 152.
A calibration curve using known concentrations of GMP was generated using the HPLC-UV-MS method described above to quantify the absolute amount of GMP in each reaction (S13 Fig). The linear range was from 5.9 nM to 3 μM. The limit of detection (LOD), defined as the lowest concentration producing a detectable peak above background, was 0.1 nM. The lower limit of quantification (LLOQ), defined as the lowest concentration used to generate a standard curve with r^2 > 0.95, was 5.9 nM. The upper limit of quantification (ULOQ), defined as the highest concentration used to generate a standard curve with r^2 > 0.95, was 3 μM. A GMP calibration curve was generated with each individual run of the HPLC-UV-MS.
To measure the IC50 as a result of treatment with each icariin analog, the in vitro inhibition enzyme assay as described above was performed, and GMP levels were normalized to no-drug controls and multiplied by 100 to obtain the percent PDE5 activity. IC50 mean ± SEM values were determined by nonlinear-regression fitting of the percent PDE5 activity data using the [inhibitor] vs response–variable slope (four parameters) equation in Prism (version 7.0a and version 8). Top value was constrained to 100, all other parameters were unconstrained. To obtain the dose-response curves for visual confirmation of the best-fit line, we executed a nonlinear regression fitting using the log(inhibitor) vs. response—variable slope (four parameters) equation in Prism. […] AICc analysis (built into Prism) was used to confirm the best-fitting inhibition model. […] Inhibition models were also compared via visual inspection of the fit of the calculated curves on the Michaelis-Menten plots.

A further series concerns BJ-hTERT cells. The experiment in a line: cellular GMP levels after inhibitor treatment. Type of series: cell-based, human. Conditions: 20 μM inhibitor, 1 hour; mean ± SEM; p<0.001. As for the experimental part:
For assaying PDE5 inhibitor effects on GMP levels in a cell line, BJ-hTERT cells were plated in 6-well plates (Corning) in the media described above. When cells were 80% confluent, fresh, pre-warmed media with DMSO (untreated controls) or 20 μM sildenafil, 3, or 7 was added and incubated for 1 hour. Maximum DMSO concentration in all samples was 0.2% of the total well volume. Cells were washed once with cold 0.9% NaCl. 800 μL of 80:20 methanol:water spiked with 500 nM isotopically labeled amino acids as internal standards was added while cells were on dry ice. Cells were detached with a cell scraper. Extracts were vortexed for 10 minutes and centrifuged at maximum speed at 4 °C to remove debris. Extracts were dried down in a vacuum dryer and stored at -80 °C. An additional sample was reserved for visual inspection of cell health by confocal light microscopy and for cell counting with a hemocytometer. Three independent assays were conducted in total, with 1–2 replicates per assay. To analyze GMP levels, samples were reconstituted in 50 μL LC-MS grade water and analyzed by HPLC-UV-MS as described in the general procedures and for enzyme inhibition and kinetics assays. The amino acid standards were analyzed in full scan positive mode with mass windows m/z 50–800. GMP peak areas were normalized to the peak area of the internal standard ^13C4, ^15N-threonine or ^13C6, ^15N3-histidine to account for variations in extraction or resuspension volume. The peak areas were then normalized to the average GMP peak area in undrugged controls and multiplied by 100 to obtain the percent GMP.

In another series the target is recombinant human PDE5 (Homo sapiens, UniProt O76074). Briefly: in vitro PDE5 kinetics assay (nonlinear regression, AICc model comparison). Type of series: biochemical. As for the experimental part: guidelines were considered in the description of the following enzyme activity assays. […] For kinetics assays, 0.015, 0.05, and 0.2 μM of compounds 3 and 7 were used. […] Maximum DMSO concentration was 0.1% of the final reaction volume for all samples. […] The final reaction volume was 100 μL. Reactions were stopped with the addition of 100 μL of 0.1 M HCl and neutralized by adding 0.1 M NaOH until the pH was 7. […] Reaction mixture components were separated with a ramp gradient of solvent A and B run at a flow rate of 0.5 mL/min as follows: 0-4 minutes 0% B, 4-7 minutes 0-95% B, 7-8 minutes 95% B, 8-11.1 minutes 0% B. GMP was measured using selected reaction monitoring in positive mode for a centroid center mass of 152. […] Top value was constrained to 100, all other parameters were unconstrained. To obtain the dose-response curves for visual confirmation of the best-fit line, we executed a nonlinear regression fitting using the log(inhibitor) vs. response-variable slope (four parameters) equation in Prism. […] AICc analysis (built into Prism) was used to confirm the best-fitting inhibition model. […] Inhibition models were also compared via visual inspection of the fit of the calculated curves on the Michaelis-Menten plots.

Series [3] addresses T1, partially purified recombinant human PDE6C (Homo sapiens, UniProt P51160).
T1 construct: partially purified recombinant full-length human PDE6C; purchased SB Drug Discovery; host or cells: insect cells
The experiment in a line: PDE6C inhibition assay (GMP production). Type of series: biochemical. As to the method:
PDE6C inhibition was measured using the same method as described for PDE5 with modifications. […] The final reaction volume was 50 μL. […] Reactions were stopped as described above for PDE5 enzyme assays, and GMP was quantified as described above. […] The amount of GMP produced in these samples was subtracted from all samples before normalizing against untreated controls.

In a further series the target is T2, bovine trypsin (Bos taurus, UniProt P00760).
T2 construct: purchased Sigma-Aldrich T1426
T2 sequence (P00760 24-246): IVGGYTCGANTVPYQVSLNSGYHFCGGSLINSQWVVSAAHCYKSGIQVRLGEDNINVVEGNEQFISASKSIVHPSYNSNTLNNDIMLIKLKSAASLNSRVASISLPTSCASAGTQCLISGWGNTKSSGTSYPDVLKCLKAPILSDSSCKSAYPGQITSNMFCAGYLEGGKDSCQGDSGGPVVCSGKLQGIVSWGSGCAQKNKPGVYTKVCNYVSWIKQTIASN
Briefly: PAINS assay: non-specific inhibition of trypsin. Type of series: biochemical. The conditions noted are these: 1x and 10x the PDE5 IC50 (3 and 7 also 50x, 250x); luteolin 50, 100, 250 μM. As for the experimental part: In assay buffer (50 mM Tris-HCl, 20 mM CaCl2, pH 8.19 with or without 0.5% igepal), 0.002 mg freshly made trypsin is incubated with drugs for 5 minutes at 25 °C. 1 mM of substrate (Nα-benzoyl-L-arginine 4-nitroanilide hydrochloride, Sigma-Aldrich, B3133) is added to start the reaction. Final reaction volume is 100 μl. Product formation is monitored by increasing absorbance at 410 nm at 25 °C for 30 minutes in kinetic mode using a SpectraMax M5 plate reader (Molecular Devices). All values were measured in duplicate.

The test system of the next series is human PDE5. The conditions noted are these: PDE5, competitive inhibitors; cited from earlier work.
Setting [4] is: 1 nM PDE5 catalytic domain, 0.3 μM cGMP, 25 °C, 15 min, mean of at least three replicates ± SEM, read-out: IC50.

Each structure is given as a SMILES string. “Also recorded” adds a separate entry of the source. Where two headings read alike, the source gives them in different places.

T1 sequence (P51160 whole entry): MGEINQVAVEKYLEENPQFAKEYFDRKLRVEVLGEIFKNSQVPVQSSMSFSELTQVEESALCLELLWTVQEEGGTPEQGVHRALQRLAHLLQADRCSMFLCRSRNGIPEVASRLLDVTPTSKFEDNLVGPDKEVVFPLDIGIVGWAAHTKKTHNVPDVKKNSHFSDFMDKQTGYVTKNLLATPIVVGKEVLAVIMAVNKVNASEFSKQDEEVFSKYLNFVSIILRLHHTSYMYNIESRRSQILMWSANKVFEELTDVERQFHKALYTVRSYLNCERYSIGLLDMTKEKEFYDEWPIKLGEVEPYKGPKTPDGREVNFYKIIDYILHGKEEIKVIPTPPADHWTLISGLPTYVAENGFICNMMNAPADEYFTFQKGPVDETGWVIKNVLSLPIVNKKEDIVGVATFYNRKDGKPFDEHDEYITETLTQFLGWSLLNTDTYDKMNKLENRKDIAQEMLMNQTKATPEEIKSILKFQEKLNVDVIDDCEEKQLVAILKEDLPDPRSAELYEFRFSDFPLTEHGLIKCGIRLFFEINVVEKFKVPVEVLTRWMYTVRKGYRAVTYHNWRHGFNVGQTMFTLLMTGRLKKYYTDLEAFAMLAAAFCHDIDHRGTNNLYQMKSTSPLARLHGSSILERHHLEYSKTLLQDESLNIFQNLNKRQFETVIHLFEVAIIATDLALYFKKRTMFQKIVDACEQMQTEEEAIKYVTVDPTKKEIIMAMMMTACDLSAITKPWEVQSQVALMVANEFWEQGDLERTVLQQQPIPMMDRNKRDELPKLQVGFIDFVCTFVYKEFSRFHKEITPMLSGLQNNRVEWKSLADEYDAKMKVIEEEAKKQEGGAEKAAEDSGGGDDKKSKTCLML

In series [1], `COc1ccc(-c2oc3c(CC=C(C)C)c(O[C@@H]4O[C@H](CO)[C@@H](O)[C@H](O)[C@H]4O)cc(O)c3c(=O)c2O)cc1` [Compound 2, Icariside I] gave a viability at 3 days of at most 70%. In addition, in series [2] (setting [4]), the IC50 came to 2100 ± 800 nM. For the same compound, in series [2], the “Fold improved potency (fold change in IC50 compared to icariin)” value stood at 3 fold.
In series [1], `COc1ccc(-c2oc3c(CC=C(C)C)c(OC4OC(CO)C(O)C(O)C4O)cc(O)c3c(=O)c2OCCO)cc1` (stereo not shown) [Compound 3, 3-O-(2-Hydroxyethyl)-Icariside I] showed a viability at 3 days, 10 μM above 70%. Also, the “fold increase in potency compared to the corresponding unglycosylated analog” value in series [2] was found to be 5 fold. Further, the “cellular GMP concentration, % of the GMP concentration in untreated control cells” value with BJ-hTERT cells is given as 9 ± 0.6%. The Preferred model entry at recombinant human PDE5 (AICc comparison of competitive vs noncompetitive inhibition) and at recombinant human PDE5 (AICc comparison of competitive vs uncompetitive inhibition) was “Competitive inhibition” each time. Also, the “probability that the competitive inhibition model is correct” value on recombinant human PDE5 (AICc, compared to a noncompetitive or uncompetitive model) was above 99%. Also, the “Probability it is correct (competitive inhibition)” value at recombinant human PDE5 (AICc, competitive vs noncompetitive inhibition) is 99.97%; on recombinant human PDE5 (AICc, competitive vs uncompetitive inhibition), above 99.99%. The mode of inhibition entry on recombinant human PDE5 (Lineweaver-Burk plot and AICc analysis) is “competitive inhibitor; also recorded: inhibits PDE5 competitively”. The “specificity for PDE5 over PDE6C” value in series [3] is listed as “shows specificity for PDE5 over PDE6C”. In series [3] (at 50x the PDE5 IC50, vs theoretical uninhibited mean of 100%), the “PDE6C inhibition, statistical significance” value was “do not show any statistically significant PDE6C inhibition”.
`COc1ccc(-c2oc3c(CC=C(C)C)c(OC4OC(CO)C(O)C(O)C4O)cc(O)c3c(=O)c2OCCCO)cc1` (stereo not shown) [Compound 4, 3-O-(3-Hydroxypropyl)-Icariside I] yielded a viability at 3 days in series [1] of at most 70%. Besides, in series [2] (setting [4]), the IC50 worked out at 800 ± 500 nM. For the same compound, the “fold decrease in potency compared to the corresponding unglycosylated compound 7” value in series [2] (4 vs 7) is on record as 6 fold. Besides, the “Fold improved potency (fold change in IC50 compared to icariin)” value in series [2] came out at 8 fold.
For `COc1ccc(-c2oc3c(CC=C(C)C)c(OC4OC(CO)C(O)C(O)C4O)cc(O)c3c(=O)c2OCC(C)O)cc1` (stereo not shown) [Compound 5, 3-O-(2-Hydroxypropyl)-Icariside I], in series [1], the viability at 3 days, 10 μM is above 70%. Further, in series [2], the “fold increase in potency compared to the corresponding unglycosylated analog” value amounted to 3 fold and the “Fold improved potency (fold change in IC50 compared to icariin)” value amounted to 12 fold.
With `COc1ccc(-c2oc3c(CC=C(C)C)c(O)cc(O)c3c(=O)c2OCC(C)O)cc1` (stereo not shown) [Compound 8, 3-O-(2-Hydroxypropyl)-Icaritin], in series [2] (setting [4]), the IC50 is 1500 ± 600 nM. The “Fold improved potency (fold change in IC50 compared to icariin)” value in series [2] stood at 4 fold.
On to `COc1ccc(-c2oc3c(CC=C(C)C)c(O)cc(O)c3c(=O)c2O)cc1` [Compound 9, Icaritin], for which, in series [2], the IC50 was 1800 ± 800 nM and the “Fold improved potency (fold change in IC50 compared to icariin)” value is listed as 3 fold. Also, the “inhibition of trypsin activity” value on bovine trypsin is recorded as “statistically significant inhibition of trypsin activity (p<0.05)”.
Consider `O=c1cc(-c2ccc(O)c(O)c2)oc2cc(O)cc(O)c12` [luteolin, reference compound], for which the “inhibition of trypsin activity” value on bovine trypsin is “statistically significant inhibition of trypsin activity (p<0.001)”.
As to `CN1CC(=O)N2[C@H](c3ccc4c(c3)OCO4)c3[nH]c4ccccc4c3C[C@@H]2C1=O` [tadalafil], the IC50 in the series on human PDE5 was […].

Values taken from publication PMC6754136 (PLoS ONE, 2019).
